Like-named read-outs stand apart in the source and are kept apart here.
How the values were obtained:
[1] = tested on: IKKε-mediated phosphorylation of IRF3; experiment: ELISA for in-situ phosphorylation of IRF3 (phospho-Ser396) in HEK293T cells cotransfected with IRF3 and IKKε; assay type: cell-based; details: Homo sapiens, HEK-293T
How it was run: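 HEK293T cells cotransfected with IRF3 and IKKε were treated with compound for 20 h, and lysates were assayed by ELISA for phospho-Ser396 IRF3, normalized to DMSO. Viability was checked in parallel by CellTiter-Glo. For TBK1, cells cotransfected with IRF7 and TBK1 were treated overnight and probed by Western blot for phospho-Ser477/Ser479 IRF7.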

IKKε = target: T1, IKKε (Homo sapiens, UniProt Q14164); experiment: In-vitro IKKε kinase assay (radiolabelled ATP, filterplate); assay type: biochemical
T1 construct: His-tag (in-house Sf9 preparation) or GST-tag (purchased Invitrogen preparation); these are alternatives, not both on one protein; host or cells: Sf9 cells
T1 sequence (Q14164 1-716): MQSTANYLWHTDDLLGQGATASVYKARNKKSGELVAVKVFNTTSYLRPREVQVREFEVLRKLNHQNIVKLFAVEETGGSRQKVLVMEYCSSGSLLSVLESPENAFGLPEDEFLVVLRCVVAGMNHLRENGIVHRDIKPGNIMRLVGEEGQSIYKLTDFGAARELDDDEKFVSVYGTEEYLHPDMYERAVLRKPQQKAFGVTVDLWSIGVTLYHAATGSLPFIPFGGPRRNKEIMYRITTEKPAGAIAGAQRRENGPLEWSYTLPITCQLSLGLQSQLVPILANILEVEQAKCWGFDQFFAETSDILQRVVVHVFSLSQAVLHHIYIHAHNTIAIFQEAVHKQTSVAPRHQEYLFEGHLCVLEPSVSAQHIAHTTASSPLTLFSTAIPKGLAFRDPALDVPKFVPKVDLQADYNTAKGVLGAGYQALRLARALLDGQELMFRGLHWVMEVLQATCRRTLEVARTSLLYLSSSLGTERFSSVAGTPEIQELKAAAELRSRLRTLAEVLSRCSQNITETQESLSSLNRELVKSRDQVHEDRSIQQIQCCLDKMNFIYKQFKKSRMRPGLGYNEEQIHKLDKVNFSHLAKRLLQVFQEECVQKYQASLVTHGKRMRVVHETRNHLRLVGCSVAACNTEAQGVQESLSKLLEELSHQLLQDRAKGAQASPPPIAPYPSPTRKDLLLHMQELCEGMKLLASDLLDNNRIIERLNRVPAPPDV
How it was run: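 His-tagged IKKε from Sf9 cells or GST-tagged IKKε, with myelin basic protein, casein or dephosphorylated casein as substrate and 32 μM ATP (2× Km) plus [γ^33]ATP. "Normal" assay used 0.1 μg/ml enzyme; "sensitized" used 0.015 μg/ml with dephosphorylated casein only. Stopped after 30–45 min with phosphoric acid; P-81 filter counts normalized to DMSO after background subtraction.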

[2] = tested on: RANTES secretion by prostate cancer DU145 cells; experiment: ELISA to detect secreted RANTES, prostate cancer DU145 cells; assay type: cell-based; details: Homo sapiens, DU-145
Protocol: Prostate cancer DU145 cells were seeded at 20,000 cells/well in a 96-well tissue culture plate. The following day media was removed and replaced with complete media containing IKKε/TBK1 inhibitor (starting concentration 25 μM, 1:3 dilutions, final DMSO 0.05%). Cells were incubated for 20 hours and culture supernatant used to determine secreted RANTES levels using a commercially available ELISA kit (R & D Systems, Minneapolis, Minn.).

[3] = Table 3, HEK293T cells in culture, read-out: pIRF3 ELISA IC50
[4] = Table 3, in vitro, read-out: IKKε IC50
[5] = DU145 cells, 20 hours, read-out: IC50, inhibition of the secretion of RANTES
[6] = Table 3, DU145 cells in culture, read-out: RANTES Secretion IC50

**Q.** How did the IC50 ([1]; 20 h, HEK293T cells, 20 hours, read-out: IC50, in-situ IKKε-mediated phosphorylation of IRF3) turn out when `N#Cc1cc(-c2ccnc(Nc3ccc(N4CCOCC4)nc3)n2)ccc1NC(=O)C1CC1` [Example Compound 141, N-[2-Cyano-4-(2-{[6-(morpholin-4-yl)pyridin-3-yl]amino}pyrimidin-4-yl)phenyl]cyclopropanecarboxamide] was run?
**A.** < 100 nM

**Q.** What about the IC50 [1, 3] of the same molecule?
**A.** 32.6 nM

**Q.** And the IC50 (IKKε; "sensitized" assay, read-out: IC50, inhibition of the kinase activity of IKKε)?
**A.** < 5 nM

**Q.** And the IC50 (IKKε; [4])?
**A.** 1.91 nM

**Q.** And the IC50 (IKKε; in-vitro IKKε kinase inhibition assays, given as 0.005 μM (5 nM), read-out: IKKε kinase inhibitory activity (IC50 value))?
**A.** < 5 nM

**Q.** And the IC50 [2, 5]?
**A.** 20 to 60 nM

**Q.** What about the IC50 [2, 6] of the same molecule?
**A.** 21 nM

**Q.** With `N#Cc1cc(-c2ccnc(Nc3ccc(CN4CCC4)nc3)n2)ccc1OC1CCOCC1` [Example Compound 47, 5-(2-{[6-(Azetidin-1-ylmethyl)pyridin-3-yl]amino}pyrimidin-4-yl)-2-(tetrahydro-2H-pyran-4-yloxy)benzonitrile] as the molecule, how does the IC50 ([1]; 20 h, HEK293T cells, 20 hours, range given from about 1 μM to about 250 nM, read-out: IC50, in-situ IKKε-mediated phosphorylation of IRF3) read?
**A.** 250 to 1000 nM

**Q.** And the IC50 [1, 3]?
**A.** 265 nM

**Q.** What about the IC50 (IKKε; [4]) of the same molecule?
**A.** 6.37 nM

**Q.** What about the IC50 [2, 5] of the same molecule?
**A.** 20 to 60 nM

**Q.** What about the IC50 [2, 6] of the same molecule?
**A.** 39.5 nM

Source: US20140288044A1, “COMPOSITIONS AND THERAPEUTIC USES OF IKK-RELATED KINASE EPSILON AND TANKBINDING KINASE 1 INHIBITORS” (Alzheimer's Institute of America, Inc., priority 2011, published 2014)
